Assay results reported in US5654008A, “Preparation of biodegradable microparticles containing a biologically active agent” (Alkermes Controlled Therapeutics Inc. II, priority 1996, dated 1997).

Which results are given for `C#C[C@]1(O)CC[C@H]2[C@@H]3CCC4=CC(=O)CC[C@@H]4[C@H]3CC[C@@]21C` [NET, norethindrone]?
NET release rate, effect of quench volume (0.25 to 1.5 L quench liquid per gram, possible minimum at 1 L): varies slightly with a possible minimum; in vitro release, effect of ethyl acetate content of quench liquid (at extreme ethyl acetate contents): quicker release
